Patent publication US20230201212A1, “INHIBITORS OF EZH2 AND METHODS OF USE THEREOF” (Epizyme, Inc., priority 2017, published 2023)

What was measured:
[1] = system: relapsed or refractory diffuse large B-cell lymphoma (DLBCL) or follicular lymphoma (FL); test: phase 2 study (NCT01897571): objective response to tazemetostat by NGS molecular profile of archive tumor; assay type: in vivo, human
Description: […]. […] The primary study endpoint is objective overall response rate.
During screening, archive tumor- and/or plasma-derived circulating tumor DNA (ctDNA) samples were obtained. Archive tumor was analyzed prospectively for EZH2-activating mutations Y646F, Y646N, Y646X (Y646H, Y646C, and Y646S), A682G, and A692V using a cobas® EZH2 Mutation Test (Roche Molecular Systems, Inc., Pleasanton, CA, USA). Next generation sequencing (NGS) was performed retrospectively on DNA derived from archive tumor and plasma samples to identify somatic mutations, amplifications, and translocations using an NHL-specific 62-gene panel on the Illumina HiSeq 2500 platform (Illumina, Inc., San Diego, CA, USA) with 100 bp paired-end reads (Table 1).
ctDNA was approximately 20,000 X for mutations and 3700 X for structural alterations. Sequencing data were aligned to the human reference sequence (hg19) and analyzed using validated cancer genome analysis algorithms (Personal Genome Diagnostics, Baltimore, MD, USA). EZH2 mutation detection rates in archive tumor were ~12% in DLBCL and 19% in FL in the total phase 2 cohort (Table 2), consistent with previous reports.

oral bioavailability = conditions: in vivo
[2] = system: advanced solid tumors or B-cell lymphomas; test: phase 1 part of phase 1/2 study (NCT01897571), tazemetostat monotherapy
[3] = Genetic Profile 1, patients matching profile (19)
[4] = Genetic Profile 1, patients not matching profile (73)
[5] = Genetic Profile 2, patients matching profile (26)
[6] = Genetic Profile 2, patients not matching profile (66)

oral bioavailability (oral bioavailability): orally bioavailable
SMILES: CCN(c1cc(-c2ccc(CN3CCOCC3)cc2)cc(C(=O)NCc2c(C)cc(C)[nH]c2=O)c1C)C1CCOCC1 [tazemetostat]
Nonresponder (SD/PF/UK), % [1, 3]: 42.1%
Responder (CR/PR), % [1, 3]: 57.9%
Nonresponder (SD/PF/UK), % [1, 4]: 80.8%
Responder (CR/PR), % [1, 4]: 19.2%
Nonresponder (SD/PD/UK), % [1, 5]: 42.3%
Responder (CR/PR), % [1, 5]: 57.7%
Nonresponder (SD/PD/UK), % [1, 6]: 84.8%
Responder (CR/PR), % [1, 6]: 15.2%
Response preference ([1]; gene EZH2, P-value 0.0253): Mutant
Response preference ([1]; gene MYD88 L273P, P-value 0.0841): Mutant
Response preference ([1]; gene STAT6, P-value 0.0753): Mutant
objective overall response rate ([1]; patients matching multigene predictor: wild-type MYC and/or HIST1H1E with mutated STAT6 and/or MYD88 in archive tumor (11/19)): ~ 58%
objective overall response rate ([1]; patients not matching the multigene predictor (14/73)): ~19%
safety profile as monotherapy ([2]; monotherapy, patients): acceptable
objective responses ([2]; phase 1, adult patients, tumors exhibiting mutated or wild-type EZH2): objective responses to tazemetostat were observed
